Assay type in all cases: functional
Assay [1] can be described thus: Inhibition of LPS-induced IL-6 production in wild-type C57BL/6 mouse BMDC pretreated with compound for 1 hr before LPS treatment measured 16 hrs by ELISA. A general note: ELISA stands for enzyme-linked immunosorbent assay.
A short description of assay [2]: Inhibition of LPS-induced IL-12 p40 production in wild-type C57BL/6 mouse BMDC pretreated with compound for 1 hr before LPS treatment measured 16 hrs by ELISA.
The nature of assay [3]: Inhibition of LPS-induced TNF-alpha production in wild-type C57BL/6 mouse BMDC pretreated with compound for 1 hr before LPS treatment measured 16 hrs by ELISA.

This note sets out measurements from ChEMBL document CHEMBL3400115, “Chemical constituents from Kandelia candel with their inhibitory effects on pro-inflammatory cytokines production in LPS-stimulated bone marrow-derived dendritic cells (BMDCs)” (Bioorg Med Chem Lett, 2015).

Some results are limits rather than exact numbers.

In general, IC50 refers to the concentration that gives 50% inhibition. On to `COc1cc([C@H]2OC[C@H]3[C@@H]2CO[C@@H]3c2cc(OC)c(O[C@@H]3O[C@H](CO)[C@@H](O)[C@H](O)[C@H]3O)c(OC)c2)cc(OC)c1O`, for which the IC50 in assay [1], in assay [2] and in assay [3] was above 50 µM in each case.

For the compound `COc1cc(-c2oc3cc(O)cc(O)c3c(=O)c2O[C@@H]2O[C@H](CO)[C@@H](O)[C@H](O)[C@H]2O)ccc1O`, the IC50 in assay [1], in assay [2] and in assay [3] was above 50 µM in each case.

For `CC1=C(CC[C@H](C)O)C(C)(C)C[C@H](O[C@@H]2O[C@H](CO)[C@@H](O)[C@H](O)[C@H]2O)C1`, the IC50 in assay [1], in assay [2] and in assay [3] was above 50 µM throughout.

In the case of `CC(C)(O)[C@H]1CC[C@@]2(C)[C@@H]3C[C@@H](O[C@@H]4O[C@H](CO)[C@@H](O)[C@H](O)[C@H]4O)[C@]2(C)[C@H](O)C31`, the half-inhibitory concentration (IC50) in assay [1], in assay [2] and in assay [3] was above 50 µM throughout.

On to `CC1=CC(=O)CC(C)(C)[C@H]1CC[C@H](C)O[C@@H]1O[C@H](CO)[C@@H](O)[C@H](O)[C@H]1O`, for which the IC50 in assay [1], in assay [2] and in assay [3] was above 50 µM throughout.

Consider `COc1cc([C@@H](O)[C@H](O)CO)cc(OC)c1O` (relative stereo), for which the IC50 in assay [1] was above 50 µM; in assay [2], above 50 µM; in assay [3], 28.7 µM.

With `COc1cc([C@@H](O)[C@@H](O)CO)cc(OC)c1O` (relative stereo), the IC50 in assay [1], in assay [2] and in assay [3] was above 50 µM each time.

With `CC1=CC(=O)CC(C)(C)[C@@]1(O)/C=C/[C@H](C)O[C@@H]1O[C@H](CO)[C@@H](O)[C@H](O)[C@H]1O` [6S,9S-ROSEOSIDE], the figures for the concentration for half-maximal inhibition (IC50) in assay [1], in assay [2] and in assay [3] were 0.07 µM, above 50 µM and 49.9 µM, respectively.

In the case of `Oc1cc(O)c2c(c1)O[C@H](c1ccc(O)c(O)c1)[C@H](O)C2` [(-)-EPICATECHIN], the IC50 in assay [1], in assay [2] and in assay [3] was above 50 µM throughout.

As for `C[C@@H]1O[C@@H](Oc2c(-c3ccc(O)cc3)oc3cc(O)cc(O)c3c2=O)[C@H](O)[C@H](O)[C@H]1O` [AFZELIN], the IC50 in assay [1], in assay [2] and in assay [3] was above 50 µM each time.

In the case of `O=C(O)/C=C/c1ccc(O)c(O)c1` [CAFFEIC ACID], the IC50 in assay [1], in assay [2] and in assay [3] was above 50 µM throughout.

In the case of `O=C(/C=C/c1ccc(O)c(O)c1)O[C@@H]1C[C@](O)(C(=O)O)C[C@@H](O)[C@H]1O` [CHLOROGENIC ACID], the IC50 in assay [1], in assay [2] and in assay [3] was above 50 µM throughout.

In the case of `Oc1cc(O)c2c(c1)O[C@H](c1ccc(O)c(O)c1)[C@@H](O)C2` [CIANIDANOL], the IC50 in assay [1], in assay [2] and in assay [3] was above 50 µM throughout.

Regarding `O=c1c(O[C@@H]2O[C@H](CO)[C@@H](O)[C@H](O)[C@H]2O)c(-c2ccc(O)c(O)c2)oc2cc(O)cc(O)c12` [ISOQUERCETIN], the IC50 in assay [1], in assay [2] and in assay [3] was above 50 µM each time.

Regarding `COc1cc(-c2oc3cc(O)cc(O)c3c(=O)c2O[C@@H]2O[C@H](CO[C@@H]3O[C@@H](C)[C@H](O)[C@@H](O)[C@H]3O)[C@@H](O)[C@H](O)[C@H]2O)ccc1O` [NARCISSIN], the IC50 in assay [1], in assay [2] and in assay [3] was above 50 µM throughout.

In the case of `O=C(O)c1ccc(O)c(O)c1` [PROTOCATECHUIC ACID], the IC50 in assay [1], in assay [2] and in assay [3] was above 50 µM in each case.

On to `C[C@@H]1O[C@@H](OC[C@H]2O[C@@H](Oc3c(-c4ccc(O)c(O)c4)oc4cc(O)cc(O)c4c3=O)[C@H](O)[C@@H](O)[C@@H]2O)[C@H](O)[C@H](O)[C@H]1O` [RUTIN], for which the IC50 in assay [1], in assay [2] and in assay [3] was above 50 µM in each case.
